Test results reported in patent US11103497B2, “Treatment of imatinib resistant leukemia” (Wyeth LLC, priority 2007, dated 2021).

How the values were obtained:
[1] = patients; cited from earlier work

SMILES | melting point [°C] | adverse effects [1]
Cc1nc(Nc2ncc(C(=O)Nc3c(C)cccc3Cl)s2)cc(N2CCN(CCO)CC2)n1 [Dasatinib] |  | hematologic toxicity and edema
COc1cc(Nc2c(C#N)cnc3cc(OCCN4CCN(C)CC4)c(OC)cc23)c(Cl)cc1Cl [Example 4, 4-[(2,4-Dichloro-5-methoxyphenyl)amino]-6-methoxy-7-[2-(4-methyl-1-piperazinyl)ethoxy]-3-quinolinecarbonitrile] | 165 to 167 | 
CCN1CCC(COc2cc3ncc(C#N)c(Nc4cc(OC)c(Cl)cc4Cl)c3cc2OC)CC1 [Example 9, 4-[(2,4-Dichloro-5-methoxyphenyl)amino]-7-[(1-ethylpiperidin-4-yl)methoxy]-6-methoxyquinoline-3-carbonitrile] | 192 to 195 | 
CCOc1cc2c(Nc3cc(OC)c(Cl)cc3Cl)c(C#N)cnc2cc1OCCCN1CCN(CC)CC1 [Example 12, 4-[(2,4-Dichloro-5-methoxyphenyl)amino]-6-ethoxy-7-[3-(4-ethylpiperazin-1-yl)propoxy]quinoline-3-carbonitrile] | 127 to 130 | 
CCOc1cc2c(Nc3cc(OC)c(Cl)cc3Cl)c(C#N)cnc2cc1OCCN1CCN(C)CC1 [Example 14, 4-[(2,4-Dichloro-5-methoxyphenyl)amino]-6-ethoxy-7-[2-(4-methyl-1-piperazinyl)ethoxy]quinoline-3-carbonitrile] | 141 to 143 | 

Second part, led by results:

melting point [°C] | SMILES | adverse effects [1]
137 to 138 | CCOc1cc2c(Nc3cc(OC)c(Cl)cc3Cl)c(C#N)cnc2cc1OCCCN1CCN(C)CC1 [Example 10, 4-[(2,4-Dichloro-5-methoxyphenyl)amino]-6-ethoxy-7-[3-(4-methylpiperazin-1-yl)propoxy]quinoline-3-carbonitrile] | 
148 to 151 | CCOc1cc2c(Nc3cc(OC)c(Cl)cc3Cl)c(C#N)cnc2cc1OCCCC1CCN(C)CC1 [Example 13, 4-[(2,4-Dichloro-5-methoxyphenyl)amino]-6-ethoxy-7-[3-(1-methylpiperidin-4-yl)propoxy]quinoline-3-carbonitrile] | 
174 to 176 | CCOc1cc2c(Nc3cc(OC)c(Cl)cc3Cl)c(C#N)cnc2cc1OCCC1CCN(C)CC1 [Example 15, 4-[(2,4-Dichloro-5-methoxyphenyl)amino]-6-ethoxy-7-[2-(1-methylpiperidin-4-yl)ethoxy]quinoline-3-carbonitrile] | 
